Measurements taken from patent US11399542B2, “Pesticidally active heterocyclic derivatives with sulfur containing substituents” (SYNGENTA PARTICIPATIONS AG, priority 2017, dated 2022).

What was measured:
Assay type in all cases: in vivo
[1] = tested on: Spodoptera littoralis (Egyptian Cotton Leaf Worm); assay: Example B2: Activity against Spodoptera littoralis, systemic via lettuce roots in agar; details: 144 h, test rate 12.5 ppm, lettuce root uptake, 6 days after infestation, read-out: effect in at least one of the three categories (mortality, anti-feeding, or growth inhibition)
Excerpt: Test compounds were applied by pipette from 10′000 ppm DMSO stock solutions into 24-well plates and mixed with agar. Lettuce seeds were placed onto the agar and the multi well plate was closed by another plate which contained also agar. After 7 days the compound was absorbed by the roots and the lettuce grew into the lid plate. The lettuce leaves were then cut off into the lid plate. Spodoptera eggs were pipetted through a plastic stencil onto a humid gel blotting paper and the lid plate was closed with it. The samples were assessed for mortality, anti-feedant effect and growth inhibition in comparison to untreated samples 6 days after infestation.

[2] = tested on: Myzus persicae (Green Peach Aphid); assay: Example B6: Activity against Myzus persicae, systemic via roots of pea seedlings; details: 144 h, test rate 24 ppm, pea seedling roots in test solution, 6 days
Description: Roots of pea seedlings infested with an aphid population of mixed ages were placed directly in the aqueous test solutions prepared from 10′000 DMSO stock solutions. The samples were assessed for mortality 6 days after placing seedlings in test solutions.

[3] = tested on: Aedes aegypti (Yellow Fever Mosquito); assay: Example B11: Activity against Aedes aegypti, dry deposit in tissue culture plates; details: 200 ppm in ethanol; adult females; after 48 h and/or 24 h
Description: Test solutions, at an application rate of 200 ppm in ethanol, were applied to 12 well tissue culture plates. Once the deposits were dry, five, two to five day old adult female Aedes aegypti were added to each well, and sustained with a 10% sucrose solution in a cotton wool plug. Assessment of knockdown was made one hour after introduction, and mortality was assessed at 24 and 48 hours after introduction.

[4] = tested on: Euschistus heros (Neotropical Brown Stink Bug); assay: Example B9: Activity against Euschistus heros, sprayed soybean leaf; details: 120 h, application rate 200 ppm, N2 nymphs on soybean leaf, 5 days after infestation, read-out: effect in at least one of the two categories (mortality or growth inhibition)
Description: Soybean leaf on agar in 24-well microtiter plates were sprayed with aqueous test solutions prepared from 10′000 ppm DMSO stock solutions. After drying the leaf were infested with N2 nymphs. The samples were assessed for mortality and growth inhibition in comparison to untreated samples 5 days after infestation.

[5] = tested on: Spodoptera littoralis (Egyptian Cotton Leaf Worm); assay: Example B1: Activity against Spodoptera littoralis, sprayed cotton leaf discs; details: foliar, 72 h, application rate 200 ppm, L1 larvae on cotton leaf discs, 3 days after infestation, read-out: control (at least one of mortality, anti-feedant effect, growth inhibition)
Description: Cotton leaf discs were placed onto agar in 24-well microtiter plates and sprayed with aqueous test solutions prepared from 10′000 ppm DMSO stock solutions. After drying the leaf discs were infested with five L1 larvae. The samples were assessed for mortality, anti-feeding effect, and growth inhibition in comparison to untreated samples 3 days after infestation. Control of Spodoptera littoralis by a test sample is given when at least one of the categories mortality, anti-feedant effect, and growth inhibition is higher than the untreated sample.

[6] = tested on: Bemisia tabaci (Cotton White Fly); assay: Example B7: Activity against Bemisia tabaci, sprayed cotton leaf discs; details: foliar, 144 h, application rate 200 ppm, adult white flies on cotton leaf discs, 6 days after incubation
Description: Cotton leaf discs were placed on agar in 24-well microtiter plates and sprayed with aqueous test solutions prepared from 10′000 ppm DMSO stock solutions. After drying the leaf discs were infested with adult white flies. The samples were checked for mortality 6 days after incubation.

[7] = tested on: Myzus persicae (Green Peach Aphid); assay: Example B5: Activity against Myzus persicae, sprayed sunflower leaf discs; details: foliar, 144 h, application rate 200 ppm, mixed-age aphids on sunflower leaf discs, 6 days after infestation
Description: (§1) Sunflower leaf discs were placed on agar in a 24-well microtiter plate and sprayed with aqueous test solutions prepared from 10′000 ppm DMSO stock solutions. After drying, the leaf discs were infested with an aphid population of mixed ages. The samples were assessed for mortality 6 days after infestation.

[8] = tested on: Plutella xylostella (Diamond Back Moth); assay: Example B3: Activity against Plutella xylostella, artificial diet, L2 larvae; details: 120 h, application rate 200 ppm, L2 larvae on artificial diet, 5 days after infestation, read-out: effect in at least one of the two categories (mortality or growth inhibition)
Description: (§2) 24-well microtiter plates with artificial diet were treated with aqueous test solutions prepared from 10′000 ppm DMSO stock solutions by pipetting. After drying, the plates were infested with L2 larvae (10 to 15 per well). The samples were assessed for mortality and growth inhibition in comparison to untreated samples 5 days after infestation.

[9] = tested on: Diabrotica balteata (Corn Root Worm); assay: Example B4: Activity against Diabrotica balteata, sprayed maize sprouts; details: 96 h, application rate 200 ppm, L2 larvae on maize sprouts, 4 days after infestation, read-out: effect in at least one of the two categories (mortality or growth inhibition)
Description: as §2, with “Maize sprouts placed onto an agar layer in 24-well” for “24-well”, “plates” for “plates with artificial diet”, “spraying.” for “pipetting.”, “(6” for “(10”, “10” for “15”, “4” for “5”

[10] = tested on: Frankliniella occidentalis (Western Flower Thrips); assay: Example B8: Activity against Frankliniella occidentalis, sprayed sunflower leaf discs; details: foliar, 168 h, application rate 200 ppm, mixed ages on sunflower leaf discs, 7 days after infestation
Description: as §1, with “in” for “in a”, “plates” for “plate”, “[…]” for “10′000 ppm”, “drying” for “drying,”, “a Frankliniella” for “an aphid”, “7” for “6”

[11] = tested on: Tetranychus urticae (Two-Spotted Spider Mite); assay: Example B10: Activity against Tetranychus urticae, sprayed bean leaf discs; details: foliar, 192 h
Description: Bean leaf discs on agar in 24-well microtiter plates were sprayed with aqueous test solutions prepared from 10′000 ppm DMSO stock solutions. After drying the leaf discs were infested with a mite population of mixed ages. The samples were assessed for mortality on mixed population (mobile stages) 8 days after infestation.

Structure (SMILES) | percent effect (mortality, anti-feeding or growth inhibition) at 12.5 ppm [1] | mortality at 24 ppm [2] | control of Aedes aegypti [3] | percent effect (mortality or growth inhibition) at 200 ppm [4] | percent control (mortality, anti-feedant effect or growth inhibition) at 200 ppm [5] | mortality at 200 ppm [6] | mortality at 200 ppm [7] | percent effect (mortality or growth inhibition) at 200 ppm [8] | percent effect (mortality or growth inhibition) at 200 ppm [9] | mortality at 200 ppm [10] | mortality at 200 ppm [11]
CCS(=O)(=O)c1cc2c(cc1-c1nc3cc(C(F)(F)F)cnc3n1C)n(C)c(=O)n2C [Compound P3, 5-ethylsulfonyl-1,3-dimethyl-6-[3-methyl-6-(trifluoromethyl)imidazo[4,5-b]pyridin-2-yl]benzimidazol-2-one] | ≥ 80% | ≥ 80% | at least 80% | ≥ 80% | ≥ 80% | ≥ 80% | ≥ 80% | ≥ 80% | ≥ 80% | ≥ 80% | –
CCn1c(=O)n(C)c2cc(S(=O)(=O)CC)c(-c3nc4cc(C(F)(F)F)cnc4n3C)cc21 [Compound P6, 1-ethyl-5-ethylsulfonyl-3-methyl-6-[3-methyl-6-(trifluoromethyl)imidazo[4,5-b]pyridin-2-yl]benzimidazol-2-one] | – | ≥ 80% | – | ≥ 80% | ≥ 80% | ≥ 80% | ≥ 80% | ≥ 80% | ≥ 80% | – | ≥ 80%
